Source: patent US11388924B2 (priority 2018, dated 2022)
Read-outs that look alike come from different tables or passages of the source.

Key:
[1] = 25° C., cited from earlier work
[2] = Description: The neutralization reaction in vegetable glycerin is less favorable in view of the reduced solubility of CO2 (Nunes et al., 2013—Solubility of CO2 in glycerol at high pressures. J. of Fluid Phase Equilibria; 358: 105-107).
In an embodiment of the present disclosure, the experimental setup described by Bihong, et al., 2015 (Mechanisms of CO2 Capture into Monoethanolamine Solution with Different CO2 Loading during the Absorption/Desorption Processes. J. of Environmental Science technology; 49 (17): 10728-10735) was implemented. […] In a further embodiment of the present disclosure, the neutralization with CO2 was performed at pressures ranging from about 0.1 MPa to about 2.7 MPa.
The organic acid is typically selected based on volatility under vaping conditions, tastelessness, low toxicity or nontoxicity to human health, ease of manipulation, ability to form liquid salts and […] an unpleasant sensation such as shortness of breath. In a further embodiment of the present disclosure, the organic acid is glycolic acid.

[3] = 20° C.; cited from earlier work
[4] = pH 7.4; cited from earlier work
[5] = after absorption through the lung; cited from earlier work
[6] = pig's nasal mucosa; cited from earlier work

Description for subjects: This sensation ranges from a smooth satisfying catch as the vapor travels down the throat to an intolerable harshness.

In the case of `O=C=O` [CO2], the “number moles of CO2 dissolved” value ([1]; acetone, 0.52 MPa) is listed as 0.0876, the “number moles of CO2 dissolved” value ([1]; ethanol, 0.41 MPa) is listed as 0.0349 and the “number moles of CO2 dissolved” value ([1]; propylene glycol, 0.38 MPa) is listed as 0.0100.
With `O=C(O)CC(O)(CC(=O)O)C(=O)O` [citric acid] the “sensation produced by the acid used in the formulation” value (from here on “sensation produced by the acid used”) (subjects; in vivo) was “unpleasant feeling”.
In the case of `CC(O)C(=O)O` (stereo not shown) [lactic acid], the “sensation produced by the acid used” value (subjects; in vivo) is reported as “unpleasant feeling”.
With `O=C(O)CC(O)C(=O)O` (stereo not shown) [malic acid] the “sensation produced by the acid used” value (subjects; acid in nicotine formulations) was “unpleasant feeling”.
With `CN1CCCC1c1cccnc1` (stereo not shown) [nicotine] the “pH reached by neutralization with CO2” value ([2]; about 25° C., about 0.41 MPa) was at most 7.5, the “final pH after neutralization with CO2” value ([2]; in water) was 6.8 and the “initial pH” value ([2]; pure nicotine in propylene glycol, before neutralization) was “above 9.5”. The “burning sensation in the throat” value (subjects; in vivo) was “diminishes or disappears”, the “feeling of shortness of breath” value (subjects; in vivo) was “waned or disappeared” and the pKa [3] was 6.15. The nicotine ionized [4] was about 69%, the nicotine unionized [4] was 31% and the “estimated time to reach the brain” value [5] was 10 to 20 s. The “permeation of the protonated form versus the unionized form” value [6] was “higher than that for the unionized form”.
